Patent publication US20260206756A1, “COMPOUNDS AND METHODS OF TREATING OR PREVENTING A BACTERIAL INFECTION IN A PLANT” (Ohio State Innovation Foundation, priority 2023, published 2026)
Values after ≈ are worked out from the molar mass of the structure shown. Where two headings read alike, the source gives them in different places.

What was measured:
[1] = tested on: Pseudomonas syringae pv. syringae (Pss) SM156-18; assay: Dose-response assay (MIC/MBC) in M9 minimal broth; details: 48 h
Protocol: (§1) Minimum inhibitory concentration (MIC) and minimum bactericidal concentration (MBC) of the 15 PCs against 10 Pss strains. A dose-response assay was conducted with the 15 PCs identified during the primary screening against 10 Pss strains including the model strain, SM1042-14R. The dose-response assay was conducted as described above with concentrations of PCs ranging from 3.125 to 500 μM. Pss treated with non-amended M9 minimal media, 2% DMSO, or 50 μg/ml kanamycin were used as controls. The plate was incubated in a Sunrise Tecan kinetic microplate reader for 48 h at 28° C. The percentage of inhibition and cell viability were determined as described above.

[2] = tested on: Pseudomonas syringae pv. syringae (Pss) SM51-19; assay: Dose-response assay (MIC/MBC) in M9 minimal broth; details: 48 h
Protocol: as §1

[3] = tested on: Pseudomonas syringae pv. syringae (Pss) SM155-18; assay: Dose-response assay (MIC/MBC) in M9 minimal broth; details: 48 h
Protocol: (§2) Primary screening of 4,182 SMs was conducted using a high throughput screening method to identify SMs that inhibited the growth of Pss SM1042-14R strain. A fresh bacterial culture of SM1042-14R was grown in M9 minimal broth in a shaking incubator (180 rpm) for 12 h at 28° C. The bacterial culture was normalized to a final optical density (OD600) of 0.05 (c.a., 8.0×10^7 CFU/ml) using a Genesys 20 spectrophotometer (Thermo Scientific, Rockford, IL, USA). In a sterile flat-bottom 96-well plate, 98 μl of the normalized bacterial suspension was challenged with 2 μl of SMs (final concentration of 200 μM). Controls were bacteria challenged with 2% DMSO (positive control; μc+), 50 μg/ml kanamycin (negative control; μc−), or M9 broth alone (blank control). The plate was incubated in a Sunrise Tecan kinetic microplate reader (Tecan Group Ltd., San Jose, CA, USA) for 48 h at 28° C. OD600 was measured every 30 min.
(§3) The plate was agitated for 15 s at 180 rpm before reading the OD600. Growth inhibition of SM1042-14R by the SMs was calculated using the following formula: % of inhibition=(μc+−X)/(μc+−μc−)×100, where μc+ and μc− is the average final OD600 of the positive and negative controls, respectively, and X is the final OD600 of each of the bacterial culture treated with a designated SM. After the 48 h of incubation with the SMs at 28° C., the viability of the bacterial culture was assessed by plating 5 μl of the culture on YDC (Yeast Dextrose Carbonate) agar medium, incubating the plate at 28° C. and monitoring any bacterial colonies on the plate after 48 h.
(§4) A dose-response assay was conducted with the 15 PCs identified during the primary screening against 10 Pss strains including the model strain, SM1042-14R. The dose-response assay was conducted as described above with concentrations of PCs ranging from 3.125 to 500 μM. Pss treated with non-amended M9 minimal media, 2% DMSO, or 50 μg/ml kanamycin were used as controls. The plate was incubated in a Sunrise Tecan kinetic microplate reader for 48 h at 28° C. The percentage of inhibition and cell viability were determined as described above.

[4] = tested on: Pseudomonas syringae pv. syringae (Pss) SM109-18; assay: Dose-response assay (MIC/MBC) in M9 minimal broth; details: 48 h
Protocol: as §2, §3, §4

[5] = tested on: Pseudomonas syringae pv. syringae (Pss) SM1031-14; assay: Dose-response assay (MIC/MBC) in M9 minimal broth; details: 48 h
Protocol: as §2, §3, §4

[6] = tested on: Pseudomonas syringae pv. syringae (Pss) SM1030-14; assay: Dose-response assay (MIC/MBC) in M9 minimal broth; details: 48 h
Protocol: as §2, §3, §4

[7] = tested on: Pseudomonas syringae pv. syringae (Pss) SM04-2018-04; assay: Dose-response assay (MIC/MBC) in M9 minimal broth; details: 48 h
Protocol: as §1

[8] = tested on: Pseudomonas syringae pv. syringae (Pss) SM1038-14; assay: Dose-response assay (MIC/MBC) in M9 minimal broth; details: 48 h
Protocol: as §1

[9] = tested on: Pseudomonas syringae pv. syringae (Pss) SM1042-14R; assay: Dose-response assay (MIC/MBC) in M9 minimal broth; details: strain SM1042-14R, 48 h, 28° C.
Protocol: as §2, §3, §4

[10] = tested on: Pseudomonas syringae pv. syringae (Pss) SM914-13; assay: Dose-response assay (MIC/MBC) in M9 minimal broth; details: 48 h
Protocol: as §1

[11] = tested on: Pss SM1042-14R on pepper seedlings; assay type: in vivo, Pseudomonas syringae pv. syringae; details: 200 μM, 7 dpi; for Pseudomonas leaf spot incidence, Curative application / Pseudomonas leaf spot incidence, Preventative application: streptomycin 200 μg/ml, CuSO4 200 μM
[12] = tested on: Pss SM1042-14R in infested pepper seeds; assay: Antimicrobial efficacy on pepper seeds artificially infested with Pss; assay type: in vivo, Pseudomonas syringae pv. syringae; details: 200 μM, 20 min soak
Protocol: Antimicrobial efficacy of ten selected PCs on pepper seeds artificially infested with Pss SM1042-14R. ‘California Wonder’ pepper seeds were used for artificial infestation with Pss SM1042-14R and PC treatment. Inoculum of Pss SM1042-14R was prepared by growing SM1042-14R in M9 minimal medium overnight as described above. The OD600 was adjusted to 0.1; approximately 1×10^8 CFU/ml. The adjusted inoculum (45 ml of inoculum for 4 g seeds) was transferred to a sterile glass beaker and placed in a Nucerite desiccator (Nalge Sybron, Milwaukee, WI, USA). Seeds were vacuum infiltrated with inoculum at 15 PSI for 5 min. Infested seeds were air-dried in a laminar flow hood at room temperature for 12 h. The dried seeds were transferred to 5 ml sterile tubes and soaked in 1 ml of PCs (200 μM) diluted in sterile water for 20 min. The seeds were air-dried again. Seed aliquots were collected at 1, 3-, 10-, 20-, and 30-days post infestation (dpi, 10 seeds per treatment group per time point). Bacterial populations were estimated by macerating five batches of two seeds per treatment group in 400 μl of 1×PBS in a Whirl Pak bag. […] This was performed twice.

ten Pss strains = assay: Dose-response assay (MIC/MBC), summary across ten Pss strains; assay type: cell-based, Pseudomonas syringae pv. syringae; details: Pseudomonas syringae; across the different Pss strains; M9 broth; read-out: MICs and MBCs
[13] = strain SM156-18, M9 broth, 28° C.
[14] = strain SM51-19, M9 broth, 28° C.
[15] = strain SM155-18, M9 broth, 28° C.
[16] = strain SM109-18, M9 broth, 28° C.
[17] = strain SM1031-14, M9 broth, 28° C.
[18] = strain SM1030-14, M9 broth, 28° C.
[19] = strain SM04-2018-04, M9 broth, 28° C.
[20] = strain SM1038-14, M9 broth, 28° C.
[21] = strain SM914-13, M9 broth, 28° C.
[22] = preventative (1 day prior to inoculation)

SMILES	Pseudomonas leaf spot incidence, Curative application [11] [%]	Pseudomonas leaf spot incidence, Preventative application [11] [%]	MBC ([1]; Pseudomonas syringae) [µM]	MIC ([1]; Pseudomonas syringae) [µM]	MBC ([2]; Pseudomonas syringae) [µM]	MIC ([2]; Pseudomonas syringae) [µM]	MBC ([3]; Pseudomonas syringae) [µM]	MIC ([3]; Pseudomonas syringae) [µM]	MBC ([4]; Pseudomonas syringae) [µM]	MIC ([4]; Pseudomonas syringae) [µM]	MBC ([5]; Pseudomonas syringae) [µM]	MIC ([5]; Pseudomonas syringae) [µM]	MBC ([6]; Pseudomonas syringae) [µM]	MIC ([6]; Pseudomonas syringae) [µM]	MBC ([7]; Pseudomonas syringae) [µM]	MIC ([7]; Pseudomonas syringae) [µM]	MBC ([8]; Pseudomonas syringae) [µM]	MIC ([8]; Pseudomonas syringae) [µM]	MBC ([10]; Pseudomonas syringae) [µM]	MIC ([10]; Pseudomonas syringae) [µM]	also measured
CCCCCCCCCCCCCCCC[n+]1ccn(CC#N)c1.[Cl-] [PC3]	86	100																			MBC [1, 13]: 50 µM; MIC [1, 13]: 25 µM; MBC [2, 14]: 50 µM; MIC [2, 14]: 25 µM; MBC [3, 15]: 50 µM; MIC [3, 15]: 25 µM; MBC [4, 16]: 25 µM; MIC [4, 16]: 25 µM; MBC [5, 17]: 25 µM; MIC [5, 17]: 25 µM; MBC [6, 18]: 50 µM; MIC [6, 18]: 25 µM; MBC [7, 19]: 25 µM; MIC [7, 19]: 12.5 µM; MBC [8, 20]: 50 µM; MIC [8, 20]: 25 µM; MBC [9]: 25 µM; MIC [9]: 25 µM; MBC [10, 21]: 25 µM; MIC [10, 21]: 12.5 µM
CCOc1ccc2nc3cc(N)ccc3c(N)c2c1 [PC7]		86																			MBC [1, 13]: 100 µM (≈ 25.3 µg/mL); MIC [1, 13]: 50 µM (≈ 12.7 µg/mL); MBC [2, 14]: 200 µM (≈ 50.7 µg/mL); MIC [2, 14]: 50 µM (≈ 12.7 µg/mL); MBC [3, 15]: 100 µM (≈ 25.3 µg/mL); MIC [3, 15]: 50 µM (≈ 12.7 µg/mL); MBC [4, 16]: 100 µM (≈ 25.3 µg/mL); MIC [4, 16]: 50 µM (≈ 12.7 µg/mL); MBC [5, 17]: 100 µM (≈ 25.3 µg/mL); MIC [5, 17]: 50 µM (≈ 12.7 µg/mL); MBC [6, 18]: 100 µM (≈ 25.3 µg/mL); MIC [6, 18]: 50 µM (≈ 12.7 µg/mL); MBC [7, 19]: 100 µM (≈ 25.3 µg/mL); MIC [7, 19]: 50 µM (≈ 12.7 µg/mL); MBC [8, 20]: 100 µM (≈ 25.3 µg/mL); MIC [8, 20]: 50 µM (≈ 12.7 µg/mL); MBC [9]: 100 µM (≈ 25.3 µg/mL); MIC [9]: 50 µM (≈ 12.7 µg/mL); MBC [10, 21]: 50 µM (≈ 12.7 µg/mL); MIC [10, 21]: 25 µM (≈ 6.33 µg/mL)
CCCCCCCCCCCCCCCCn1c[n+](C)c2ccccc21 [PC1]	86	100	12.5	6.25	12.5	6.25	12.5	6.25	12.5	6.25	12.5	6.25	25	6.25	12.5	6.25	25	12.5	12.5	6.25	
O=S(=O)([O-])[O-].[Cu+2] [CuSO4, copper sulfate]	57	100																			reduction in Pss load in infested seeds ([12]; 20 days post infestation): 1.9±0.5 log CFU/g; Pss reduction compared to the DMSO group ([11]; curative (1 dpi)): 1.1±0.5 log CFU/g; disease severity (number of lesions per two leaves) ([11]; curative (1 dpi), first trial): 28.1±13.9 lesions; disease severity (number of lesions per two leaves) [11, 22]: 188.4±163.5 lesions; reduction in Pss load compared to the DMSO group [11, 22]: 0.05±0.01 log CFU/g
COc1cc(CN(C)Cc2ccccc2)ccc1OCC(O)CN1CCCCCCC1 (stereo not shown) [PC9]	71	100	200 (≈ 85.3 µg/mL)	200 (≈ 85.3 µg/mL)	200 (≈ 85.3 µg/mL)	100 (≈ 42.7 µg/mL)	200 (≈ 85.3 µg/mL)	100 (≈ 42.7 µg/mL)	200 (≈ 85.3 µg/mL)	100 (≈ 42.7 µg/mL)	200 (≈ 85.3 µg/mL)	200 (≈ 85.3 µg/mL)	200 (≈ 85.3 µg/mL)	100 (≈ 42.7 µg/mL)	200 (≈ 85.3 µg/mL)	100 (≈ 42.7 µg/mL)	200 (≈ 85.3 µg/mL)	100 (≈ 42.7 µg/mL)	200 (≈ 85.3 µg/mL)	200 (≈ 85.3 µg/mL)	MBC (ten Pss strains): 50 to 200 µM (≈ 21.3 to 85.3 µg/mL); Pss reduction compared to the DMSO group ([11]; curative (1 dpi)): 1.9±0.7 log CFU/g
Cn1cc(CNCCCn2ccnc2)c(-c2ccc(Oc3ccccc3)cc2)n1 [PC10]	71	100	200 (≈ 77.5 µg/mL)	200 (≈ 77.5 µg/mL)	200 (≈ 77.5 µg/mL)	200 (≈ 77.5 µg/mL)	200 (≈ 77.5 µg/mL)	200 (≈ 77.5 µg/mL)	200 (≈ 77.5 µg/mL)	200 (≈ 77.5 µg/mL)	200 (≈ 77.5 µg/mL)	200 (≈ 77.5 µg/mL)	200 (≈ 77.5 µg/mL)	200 (≈ 77.5 µg/mL)	200 (≈ 77.5 µg/mL)	200 (≈ 77.5 µg/mL)	200 (≈ 77.5 µg/mL)	200 (≈ 77.5 µg/mL)	200 (≈ 77.5 µg/mL)	200 (≈ 77.5 µg/mL)	reduction in Pss load in infested seeds ([12]; 30 dpi): 1.9±0.2 log CFU/g; MBC (ten Pss strains): 50 to 200 µM (≈ 19.4 to 77.5 µg/mL)
CC1CCC(C(C)C)C(OC(=O)Cn2c[n+](CC(=O)OC3CC(C)CCC3C(C)C)c3ccccc32)C1 (stereo not shown) [PC4]	100	100	12.5	12.5	12.5	12.5	25	12.5	12.5	12.5	12.5	12.5	12.5	12.5	25	12.5	12.5	12.5	12.5	12.5	
CCN1/C(=C/c2ccc3ccccc3[n+]2CC)C=Cc2ccccc21 [PC2]	86	100	25	6.25	50	6.25	25	12.5	12.5	12.5	25	6.25	50	6.25	25	6.25	25	12.5	25	6.25	
